Laboratory results from patent US12622917B2, “High-activity Wnt pathway inhibitor compound” (ADLAI NORTYE BIOPHARMA CO., LTD., priority 2020, dated 2026).

How the values were obtained:
[1] = test system: Colo205-LUC-TCF/LEF M1 reporter cell line (Wnt pathway); assay: Colo205-LUC-TCF/LEF M1 reporter gene (luciferase) inhibition; type: cell-based; details: 4 hours incubation, luciferase readout
Method in brief: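 Luminescent readout of TCF/LEF-regulated luciferase after a 4 h, 37° C compound exposure in a stable Colo205 reporter clone (10,000 cells/well). Serial 3-fold dilutions started at 20 uM; IC50 derived using DMSO-treated cells and no-cell wells as controls.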

Colo205 = assay: Proliferation inhibition, Wnt mutant cell line Colo205; type: cell-based; details: Homo sapiens, COLO 205; Colo205, Wnt pathway-dependent, 96 hours; read-out: Antiproliferative IC50 Colo205
Method in brief: (§1)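 Log-phase cells are plated (1000 per well) and allowed to settle for 20-24 h at 37° C. Compound is added in 3-fold steps, highest final concentration 20 uM, and growth continues for 96 hours before a Promega viability measurement, from which the IC50 is obtained.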

DU4475 = assay: Proliferation inhibition, Wnt mutant cell line DU4475; type: cell-based; details: Homo sapiens, DU-4475; DU4475, Wnt pathway-dependent, 96 hours; read-out: Antiproliferative IC50 DU4475
Method in brief: as §1

Hela = assay: Proliferation inhibition, non-Wnt mutant control cell line Hela; type: cell-based; details: Homo sapiens, Wnt-independent control cell line, 96 hours, read-out: Antiproliferative IC50 Hela
Text: The cell lines used in the experiment are Colo205 and DU4475 cell lines whose Wnt pathway is continuously activated and whose proliferation is Wnt pathway-dependent; while the BELA and RKO cell lines, whose Wnt pathway is not activated under normal circumstances and the proliferation is independent of Wnt pathway, as control cell lines. It is Judged that the inhibitory effect of the compound of the present invention on Wnt-dependent proliferation is not caused by other non-specific toxicity.
Treat the Colo205, Du4475, HELA and RKO cell lines cultured in their respective mediums in the logarithmic growth phase, collect the cells and prepare a uniform cell suspension of known concentration, and then add it to the 96-well cell culture plate Cell suspension, so that each well contains 1000 cells. Put it into a 5% CO2 incubator and incubate at 37° C. for 20-24 h. On the second day, the fully dissolved, 3-fold serially diluted compound was added to each cell culture well, so that the final maximum concentration in the cell culture well was 20 uM, and the culture was continued for 96 hours. In this test, Promega's cell viability detection test is used for detection. The more the cells proliferate, the stronger the final signal intensity will be. The detection instrument is SpectraMax, full wavelength mode. The wells only added with DMSO were used as positive control wells, and the wells that were not inoculated with cells were used as negative control wells. […] The IC50 value of cell proliferation inhibition was used to evaluate the inhibitory effect of the compound on the Wnt pathway and the toxic effect on normal cells (Table 2).

RKO = assay: Proliferation inhibition, non-Wnt mutant control cell line RKO; type: cell-based; details: Homo sapiens, Wnt-independent control cell line, 96 hours, read-out: Antiproliferative IC50 RKO
Method in brief: as §1

NCI-H929 = assay: Proliferation inhibition, NCI-H929 cell line; type: cell-based, human; details: Homo sapiens; NCI-H929 cells, 96 hours culture, cell viability detection; read-out: Antiproliferative IC50 NCI-H929
Text: The cell lines used in the test are NCI-H929 and HepG2 cell lines whose Wnt pathway is continuously activated and whose proliferation is Wnt pathway-dependent; the inhibitory effect of the compound of the present invention on Wnt-dependent proliferation is judged.
Treat the NCI-H929 and HepG2 cell lines cultured in their respective mediums in the logarithmic growth phase, collect the cells and prepare a uniform cell suspension of known concentration, and then add the cell suspension to the 96-well cell culture plate solution so that each well contains 4000 cells. Put it into a […] incubator and incubate at 37° C. for 20-24 h. On the second day, the fully dissolved, 3-fold serially diluted compound was added to each cell culture well, so that the final maximum concentration in the cell culture well was 20 uM, and the culture was continued for 96 hours. In this test, Promega's cell viability detection test is used for detection. The more the cells proliferate, the stronger the final signal intensity will be. The detection instrument is SpectraMax, full wavelength mode. The wells only added with DMSO were used as positive control wells, and the wells that were not inoculated with cells were used as negative control wells. […] The IC50 value of cell proliferation inhibition was used to evaluate the inhibitory effect of the compound on the Wnt pathway and the toxic effect on normal cells (Table 3).

HepG2 = assay: Proliferation inhibition, HepG2 cell line; type: cell-based; details: Homo sapiens; HepG2 cells, 96 hours culture, cell viability detection; read-out: Antiproliferative IC50 HepG2
Method in brief: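 Wnt-dependent proliferation in HepG2 and NCI-H929 cells, seeded at 4000 cells/well and pre-incubated 20-24 h at 37 °C. Cells were then exposed for 96 h to 3-fold serial dilutions (top final concentration 20 uM), and viability was read by signal intensity. IC50 was referenced to DMSO-only wells and cell-free wells.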

SMILES | IC50 [1] [nM] | IC50 (Colo205) [nM] | IC50 (DU4475) [nM] | IC50 (Hela) [nM] | IC50 (RKO) [nM] | IC50 (NCI-H929) [nM] | IC50 (HepG2) [nM]
CN1c2nc(NCc3cnn(Cc4ccc(C(F)(F)F)nc4)c3)nc3ccn(c23)C[C@@H]1CO [71 (W56)] | 20 | 13.5 | 16.7 | > 10000 | > 10000 |  | 
C[C@H]1CN(C2CC2)c2nc(NCc3cnn(Cc4ccc(C(F)(F)F)nc4)c3)nc3ccn1c23 [90 (W152)] | 24 | 42 | 37 | > 10000 | 5660 |  | 
Cc1cn2c3c(nc(NCc4cnn(Cc5ccc(F)cc5)c4)nc13)N(C)[C@@H](C)C2 [65 (W32)] | 20 | 43.5 | 41.7 | 3490 | 1720 |  | 
C[C@H]1C(=O)N2CCCc3nc(NCc4ccc(Oc5cncc(C(F)(F)F)c5)nc4)nc(c32)N1C [99 (W193)] | 27 | 12 | 21 | > 10000 | > 10000 |  | 
C[C@H]1C(=O)N2CCCc3nc(NCc4ccc(Cn5ccc(C(F)(F)F)n5)nc4)nc(c32)N1C [92 (W232)] |  | 81 | 80 | > 10000 | > 10000 |  | 
COC[C@H]1Cn2ccc3nc(NCc4ccc(C(F)(F)F)nc4)nc(c32)N1C [86 (W135)] | 38 | 79 |  | > 10000 | > 10000 |  | 
COC[C@H]1[C@@H](C)n2ccc3nc(NCc4cnn(Cc5ccc(C(F)(F)F)nc5)c4)nc(c32)N1C [88 (W140)] | 22 |  |  | > 10000 | > 10000 |  | 
CCN1c2nc(NCc3ccc(Oc4ccc(C(F)(F)F)nc4)nc3)nc3c2N(CCC3)C(=O)[C@@H]1C(C)C [118 (W279), (S)-4-ethyl-5-isopropyl-2-(((6-((6-(trifluoromethyl)pyridin-3-yl)oxo)pyridin-3-yl)methyl)amino)-4,5,9,10-tetrahydro-6H,8H-pyrido[3,2,1-de]pteridin-6-one] | 5 | 8.5 | 6.5 |  | > 10000 | 83 | 16
CC[C@H]1C(=O)N2CCCc3nc(NCc4ccc(Oc5cnc(C(F)(F)F)nc5)nc4)nc(c32)N1C [161 (W269)] | 9 | 4.6 | < 0.5 |  | > 10000 | 22 | 16
CN1c2nc(NCc3ccc(Oc4cnc(C(F)(F)F)nc4)nc3)nc3c2N(CCC3)C(=O)[C@@H]1C1CC1 [167 (W289)] | 12 | 6 | 0.6 |  | > 10000 | 28 | 6.8
C[C@H]1C(=O)N2CCCc3nc(NCc4cnn(CCCC(F)(F)F)c4)nc(c32)N1C [93 (W223)] |  | 89 | 79 | > 10000 | > 10000 |  | 
[2H]C([2H])([2H])N1c2nc(NCc3ccc(Oc4ccc(C(F)(F)F)nc4)nc3)nc3c2N(CCC3)C(=O)[C@@H]1CC(F)(F)F [196 (W344)] | 7 | 1.4 | < 0.5 |  | > 10000 | 54 | 1.2
CCN1c2nc(NCc3ccc(Oc4cc(C(F)(F)F)nn4C)nc3)nc3c2N(CCC3)C(=O)[C@@H]1C [153 (W293)] | 15 | 21 | 3.9 |  | > 10000 | 37 | 19
[2H]C([2H])([2H])N1c2nc(NCc3ccc(Oc4cnc(C(F)(F)F)nc4)nc3)nc3c2N(CCC3)C(=O)[C@@H]1CC(F)(F)F [193 (W342)] | 4 | 1.4 | < 0.5 |  | > 10000 | 24 | 1.2
CN1c2nc(NCc3ccc(Oc4ccc(C(F)(F)F)nc4)nc3)nc3c2N(CCC3)C(=O)[C@@H]1CC(F)(F)F [190 (W317)] | 11 | 7.9 | < 0.5 |  | > 10000 | 6.4 | 2.1
